Results as given in patent publication US4735953A, “Pharmaceutical preparation for learning stimulation and memory improvement” (priority 1986, dated 1988).

Tests used:
[1] = system: rabbit's brain hemispheres; assay: Amplitude of induced potential in brain hemispheres (acoustic irritation); assay type: in vivo; settings: rabbits
Experimental: (§1) In the third series of experiments the effect of the preparation according to the present invention on the functional brain asymmetry was studied. The experiments were carried out on rabbits with electrodes implanted in the brain. The electrodes under nembutal narcosis (40 mg/kg) were implanted strictly symmetrically into the bearing zone of the temporal cortex of the right and left hemispheres on its lateral surface, whereas the indifferent electrode was secured to the nasal bones of a rabbit's skull. The acoustic irritation was applied through earphones. As the acoustic irritation a sound click caused by a square-shaped pulse from an electronic stimulator with a frequency of 0.1-0.2 Hz was used; the click intensity was adjusted within the range of from 5 to 80 Db. The amplification of the taken-off biopotentials was effected on an electroencephalograph; the induced potentials were obtained by means of an analyzer. 100 experiments on 20 animals were thus conducted; the interval between experiments on one animal was 7 days. The amplitude and form of the induced potential were determined. The asymmetry factor (Kas) was calculated by the formula: [formula] Ar --amplitude of the induced potential of the […] hemisphere, μV;
(§2) A1 --amplitude of the induced potential of the left hemisphere.
(§3) The test preparations were administered hypodermally in the form of 0.5-1.5% aqueous solutions 20 minutes before the beginning of the measurements.

[2] = system: rats; assay: Teaching of rats in a T-shaped labyrinth with positive meal support; assay type: in vivo, rat
Description: In the second series of experiments the preparation according to the present invention was studied for the effect on teaching of rats in a T-shaped labyrinth in one compartment of which a feedbox with meal was provided. Rats deprived of meals during the day were placed into the starting compartment of the labyrinth and taught to find the feed-box in the proper compartment of the labyrinth. The response time, the number of unrealized reactions, the latent period, and the number of errors were noted.
Similar results were obtained in experiments in a T-shaped labyrinth with the use of a positive meal support.

[3] = system: rats persistently choosing the left side of the labyrinth; assay: Lateralization of free behaviour in the T-shaped labyrinth; assay type: in vivo, rat; settings: for Number of runs to the right, Series I / Number of runs to the right, Series II / Number of runs to the right, Series III: 20 animals
Experimental: Also studied was the change of lateralization of free behaviour of rats in the T-shaped labyrinth. In the experiment rats of both sexes with a mass of 180-230 g were used. Preliminary experiments were carried out on 120 animals, then a group of 40 animals was chosen which during 20 days selected the left corridor in the first attempt of running through the labyrinth.
The data on the capacity of the preparation according to the present invention to enhance the domination of one (left) brain hemisphere have been supported in behaviour experiments on rats where the change in lateralization of a free behaviour of rats in a T-shaped labyrinth was studied.

[4] = system: learning ability of mice in a shuttle chamber; assay: Learning ability of mice in a shuttle chamber; assay type: in vivo, mouse
[5] = system: cerebral cortex of rabbits; assay: Asymmetry factor by induced potential in the hearing zone of the cerebral cortex; assay type: in vivo, rabbit
Experimental: as §1, §2, §3

[6] = mice, hypodermally 1 mg/kg, 1st day
[7] = mice, hypodermally 1 mg/kg, 12 day (retention)
[8] = mice, hypodermally 3 mg/kg, 1st day
[9] = mice, hypodermally 3 mg/kg, 12 day (retention)
[10] = mice, hypodermally 10 mg/kg, 1st day
[11] = mice, hypodermally 10 mg/kg, 12 day (retention)
[12] = mice, per os 0.3 mg/kg, 1st day
[13] = mice, per os 0.3 mg/kg, 12 day (retention)
[14] = mice, per os 1 mg/kg, 12 day (retention)
[15] = mice, per os 3 mg/kg, 12 day (retention)

Cl.Nc1c2c(nc3c1CCC3)CCCC2.O [preparation of the invention, 9-amino-2,3,5,6,7,8-hexahydro-1H-cyclopenta(b)quinoline monohydrate hydrochloride]
amplitude of induced potentials (in words) [1]: increased greater in the left hemisphere | Change of amplitude of induced potential, % of the control, left hemisphere ([1]; hypodermally 5 mg/kg): 270% | Change of amplitude of induced potential, % of the control, right hemisphere ([1]; hypodermally 5 mg/kg): 200% | Mean value of amplitude of induced potential, % ([1]; hypodermally 5 mg/kg): 235% | number of response failures as compared to the initial level on the first day of teaching ([2]; rats, 5 mg/kg, by the fourth day of teaching, control 60-70%): 40% | number of response failures (in words) ([2]; rats, 1, 5 and 10 mg/kg): reduced number of response failures | choice of the right side of the labyrinth (in words) [3]: statistically markedly increased | Number of runs to the right, Series I ([3]; hypodermally 5 mg/kg): 10 | Number of runs to the right, Series II ([3]; hypodermally 5 mg/kg): 12 | Number of runs to the right, Series III ([3]; hypodermally 5 mg/kg): 14 | Number of runs to the right, Series I ([3]; hypodermally 10 mg/kg): 9 | Number of runs to the right, Series II ([3]; hypodermally 10 mg/kg): 14 | Number of runs to the right, Series III ([3]; hypodermally 10 mg/kg): 15 | efficiency versus comparison preparations (in words) ([4]; mice): more efficient than pyracetam, 4-aminopyridine, physostigmine and calcium homopantothenate | retention of the acquired knowledge (in words) ([4]; mice, 1, 3 and 10 mg/kg, after 24 hours): improves retention of the acquired knowledge | learning process (in words) ([4]; mice, 1, 3 and 10 mg/kg, first day of teaching): facilitates the learning process | % of avoidance reactions, group I [4, 6]: 22% | % of avoidance reactions, group II [4, 6]: 40% | % of avoidance reactions, group III [4, 6]: 52% | % of avoidance reactions, group IV [4, 6]: 60% | % of avoidance reactions, group V [4, 6]: 70% | % of avoidance reactions, group VI [4, 6]: 74% | % of avoidance reactions, group I [4, 7]: 70% | % of avoidance reactions, group II [4, 7]: 88% | % of avoidance reactions, group III [4, 7]: 90% | % of avoidance reactions, group IV [4, 7]: 90% | % of avoidance reactions, group V [4, 7]: 91% | % of avoidance reactions, group VI [4, 7]: 90% | % of avoidance reactions, group I [4, 8]: 32% | % of avoidance reactions, group II [4, 8]: 43% | % of avoidance reactions, group III [4, 8]: 50% | % of avoidance reactions, group IV [4, 8]: 61% | % of avoidance reactions, group V [4, 8]: 67% | % of avoidance reactions, group VI [4, 8]: 65% | % of avoidance reactions, group I [4, 9]: 66% | % of avoidance reactions, group II [4, 9]: 90% | % of avoidance reactions, group III [4, 9]: 88% | % of avoidance reactions, group IV [4, 9]: 87% | % of avoidance reactions, group V [4, 9]: 86% | % of avoidance reactions, group VI [4, 9]: 86% | % of avoidance reactions, group I [4, 10]: 28% | % of avoidance reactions, group II [4, 10]: 20% | % of avoidance reactions, group III [4, 10]: 25% | % of avoidance reactions, group IV [4, 10]: 40% | % of avoidance reactions, group V [4, 10]: 44% | % of avoidance reactions, group VI [4, 10]: 46% | % of avoidance reactions, group I [4, 11]: 61% | % of avoidance reactions, group II [4, 11]: 75% | % of avoidance reactions, group III [4, 11]: 78% | % of avoidance reactions, group IV [4, 11]: 77% | % of avoidance reactions, group V [4, 11]: 76% | % of avoidance reactions, group VI [4, 11]: 81% | % of avoidance reactions, group I [4, 12]: 27% | % of avoidance reactions, group II [4, 12]: 38% | % of avoidance reactions, group III [4, 12]: 59% | % of avoidance reactions, group IV [4, 12]: 65% | % of avoidance reactions, group V [4, 12]: 68% | % of avoidance reactions, group VI [4, 12]: 72% | % of avoidance reactions, group I [4, 13]: 79% | % of avoidance reactions, group II [4, 13]: 84% | % of avoidance reactions, group III [4, 13]: 82% | % of avoidance reactions, group IV [4, 13]: 83% | % of avoidance reactions, group V [4, 13]: 80% | % of avoidance reactions, group VI [4, 13]: 82% | % of avoidance reactions, group I ([4]; mice, per os 1 mg/kg, 1st day): 27% | % of avoidance reactions, group II ([4]; mice, per os 1 mg/kg, 1st day): 43% | % of avoidance reactions, group III ([4]; mice, per os 1 mg/kg, 1st day): 70% | % of avoidance reactions, group IV ([4]; mice, per os 1 mg/kg, 1st day): 80% | % of avoidance reactions, group V ([4]; mice, per os 1 mg/kg, 1st day): 80% | % of avoidance reactions, group VI ([4]; mice, per os 1 mg/kg, 1st day): 82% | % of avoidance reactions, group I [4, 14]: 80% | % of avoidance reactions, group II [4, 14]: 90% | % of avoidance reactions, group III [4, 14]: 88% | % of avoidance reactions, group IV [4, 14]: 87% | % of avoidance reactions, group V [4, 14]: 86% | % of avoidance reactions, group VI [4, 14]: 90% | % of avoidance reactions, group I ([4]; mice, per os 3 mg/kg, 1st day): 18% | % of avoidance reactions, group II ([4]; mice, per os 3 mg/kg, 1st day): 27% | % of avoidance reactions, group III ([4]; mice, per os 3 mg/kg, 1st day): 35% | % of avoidance reactions, group IV ([4]; mice, per os 3 mg/kg, 1st day): 44% | % of avoidance reactions, group V ([4]; mice, per os 3 mg/kg, 1st day): 51% | % of avoidance reactions, group VI ([4]; mice, per os 3 mg/kg, 1st day): 50% | % of avoidance reactions, group I [4, 15]: 51% | % of avoidance reactions, group II [4, 15]: 76% | % of avoidance reactions, group III [4, 15]: 75% | % of avoidance reactions, group IV [4, 15]: 77% | % of avoidance reactions, group V [4, 15]: 79% | % of avoidance reactions, group VI [4, 15]: 80% | memory stimulation, per os as compared to subcutaneous administration ([4]; mice, per os vs subcutaneous): the same or even better results of memory stimulation | asymmetry factor (in words) [5]: the asymmetry factor is also increased
